test: Inhibition of P-gp mediated doxorubicin resistance in human SW620/AD300 cells overexpressing P-gp measured after 48 hrs by MTT assay

With `COc1cccc2c1C(=O)c1c(O)c3c(c(O)c1C2=O)C[C@@](O)(C(=O)CO)C[C@@H]3O[C@H]1C[C@H](N)[C@H](O)[C@H](C)O1` [Adriamycin] the IC50 was 5750 nM.

test: Inhibition of P-gp mediated doxorubicin resistance in human SW620/AD300 cells overexpressing P-gp in presence of doxorubicin measured after 52 hrs by MTT assay

In order of rising IC50:
1. C[C@@H]1OC(CC(=O)O)=Cc2c1c(O)c1c3c(c4n(c23)[C@H]([C@@H](C)O)CC4)C=CC1=O  1010 nM
2. COC(=O)C[C@H]1Cc2c(c(O)c3c4c(c5n(c24)[C@H]([C@@H](C)O)CC5)C=CC3=O)[C@H](C)O1  1200 nM
3. C[C@H]1OC(CC(=O)O)=Cc2c1c(O)c1c3c(c4n(c23)[C@H]([C@@H](C)O)CC4)C=CC1=O  1440 nM
4. C[C@@H]1O[C@@H](CC(=O)O)C(=O)c2c1c(O)c1c3c(c4n(c23)[C@H]([C@@H](C)O)CC4)C=CC1=O  1480 nM
5. C[C@H]1O[C@H](CC(=O)O)Cc2c1c(O)c1c3c(c4n(c23)[C@@H]([C@@H](C)O)CC4)C=CC1=O  1530 nM
6. C[C@@H](O)[C@@H]1CCc2c3c4c(c(O)c(O)c(C[C@@H](O)CC(=O)O)c4n21)C(=O)C=C3  4490 nM
7. C[C@H]1Oc2c(O)c3c4c(c5n(c4c2C[C@H](CC(=O)O)O1)[C@H]([C@@H](C)O)CC5)C=CC3=O  5040 nM
8. C[C@H]1O[C@]2(C)CC(=O)O[C@]2(C)c2c1c(O)c1c3c(c4n(c23)[C@@H]([C@@H](C)O)CC4)C=CC1=O  7580 nM

From BindingDB's records for PubMed 35073486 (The University of Queensland, 2022)
